Experimental data published in PubChem BioAssay (NCI).
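Results reflect a 48-hour exposure of cells in 96-well plates to compound at five concentrations. TGI: total growth inhibition.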

Tests used:
Assay in all cases: inhibition of tumour cell growth, NCI panel, 48 h
MCF7 breast = tested on: MCF7 breast
HL-60(TB) leukemia = tested on: HL-60(TB) leukemia
NCI-H23 lung = tested on: NCI-H23 lung
HT29 colon = tested on: HT29 colon
MDA-MB-435 = tested on: MDA-MB-435
SF-539 CNS = tested on: SF-539 CNS
HCC-2998 colon = tested on: HCC-2998 colon
OVCAR-8 ovarian = tested on: OVCAR-8 ovarian
HOP-92 NSCLC = tested on: HOP-92 NSCLC
A549 NSCLC = tested on: A549 NSCLC
SK-OV-3 ovarian = tested on: SK-OV-3 ovarian
DU-145 prostate = tested on: DU-145 prostate
UACC-62 melanoma = tested on: UACC-62 melanoma
SK-MEL-5 melanoma = tested on: SK-MEL-5 melanoma
NCI-H460 lung = tested on: NCI-H460 lung
CCRF-CEM leukemia = tested on: CCRF-CEM leukemia
SN12C renal = tested on: SN12C renal
HS 578T breast = tested on: HS 578T breast
SNB-75 CNS = tested on: SNB-75 CNS
M14 melanoma = tested on: M14 melanoma
HOP-62 NSCLC = tested on: HOP-62 NSCLC
SR leukemia = tested on: SR leukemia
OVCAR-3 ovarian = tested on: OVCAR-3 ovarian
BT-549 breast = tested on: BT-549 breast
UACC-257 melanoma = tested on: UACC-257 melanoma
SF-295 CNS = tested on: SF-295 CNS
EKVX NSCLC = tested on: EKVX NSCLC
RPMI-8226 leukemia = tested on: RPMI-8226 leukemia
IGROV1 ovarian = tested on: IGROV1 ovarian
HCT-116 colon = tested on: HCT-116 colon
MALME-3M melanoma = tested on: MALME-3M melanoma
KM12 colon = tested on: KM12 colon
U251 CNS = tested on: U251 CNS
K-562 leukemia = tested on: K-562 leukemia
SNB-19 CNS = tested on: SNB-19 CNS
OVCAR-5 ovarian = tested on: OVCAR-5 ovarian
SF-268 CNS = tested on: SF-268 CNS
NCI-H226 lung = tested on: NCI-H226 lung
MOLT-4 leukemia = tested on: MOLT-4 leukemia
HCT-15 colon = tested on: HCT-15 colon
T-47D breast = tested on: T-47D breast
SW-620 colon = tested on: SW-620 colon
UO-31 renal = tested on: UO-31 renal
ACHN renal = tested on: ACHN renal
PC-3 prostate = tested on: PC-3 prostate
786-0 renal = tested on: 786-0 renal
MDA-N = tested on: MDA-N
NCI/ADR-RES ovarian = tested on: NCI/ADR-RES ovarian
MDA-MB-231 breast = tested on: MDA-MB-231 breast
NCI-H522 lung = tested on: NCI-H522 lung
SK-MEL-2 melanoma = tested on: SK-MEL-2 melanoma
COLO 205 colon = tested on: COLO 205 colon
TK-10 renal = tested on: TK-10 renal
OVCAR-4 ovarian = tested on: OVCAR-4 ovarian
A498 renal = tested on: A498 renal
LOX IMVI melanoma = tested on: LOX IMVI melanoma
RXF 393 renal = tested on: RXF 393 renal
SK-MEL-28 melanoma = tested on: SK-MEL-28 melanoma
CAKI-1 renal = tested on: CAKI-1 renal

COc1cc(COC(=O)N2CSCC2C(=O)O)c([N+](=O)[O-])cc1OC (centres undefined)
TGI (MCF7 breast): > 100 µM | TGI (HL-60(TB) leukemia): > 100 µM | TGI (NCI-H23 lung): > 100 µM | TGI (HT29 colon): > 100 µM | TGI (MDA-MB-435): > 100 µM | TGI (SF-539 CNS): > 100 µM | TGI (HCC-2998 colon): > 100 µM | TGI (OVCAR-8 ovarian): > 100 µM | TGI (HOP-92 NSCLC): > 100 µM | TGI (A549 NSCLC): > 100 µM | TGI (SK-OV-3 ovarian): > 100 µM | TGI (DU-145 prostate): > 100 µM | TGI (UACC-62 melanoma): > 100 µM | TGI (SK-MEL-5 melanoma): > 100 µM | TGI (NCI-H460 lung): > 100 µM | TGI (CCRF-CEM leukemia): > 100 µM | TGI (SN12C renal): > 100 µM | TGI (HS 578T breast): > 100 µM | TGI (SNB-75 CNS): > 100 µM | TGI (M14 melanoma): > 100 µM | TGI (HOP-62 NSCLC): > 100 µM | TGI (SR leukemia): > 100 µM | TGI (OVCAR-3 ovarian): > 100 µM | TGI (BT-549 breast): > 100 µM | TGI (UACC-257 melanoma): > 100 µM | TGI (SF-295 CNS): > 100 µM | TGI (EKVX NSCLC): > 100 µM | TGI (RPMI-8226 leukemia): > 100 µM | TGI (IGROV1 ovarian): > 100 µM | TGI (HCT-116 colon): > 100 µM | TGI (MALME-3M melanoma): > 100 µM | TGI (KM12 colon): > 100 µM | TGI (U251 CNS): > 100 µM | TGI (K-562 leukemia): > 100 µM | TGI (SNB-19 CNS): > 100 µM | TGI (OVCAR-5 ovarian): > 100 µM | TGI (SF-268 CNS): > 100 µM | TGI (NCI-H226 lung): > 100 µM | TGI (MOLT-4 leukemia): > 100 µM | TGI (HCT-15 colon): > 100 µM | TGI (T-47D breast): > 100 µM | TGI (SW-620 colon): > 100 µM | TGI (UO-31 renal): > 100 µM | TGI (ACHN renal): > 100 µM | TGI (PC-3 prostate): > 100 µM | TGI (786-0 renal): > 100 µM | TGI (MDA-N): > 100 µM | TGI (NCI/ADR-RES ovarian): > 100 µM

COc1ccc2c(c1)N=C(N)n1c(nc3ccccc31)S2
TGI (MCF7 breast): > 100 µM | TGI (HL-60(TB) leukemia): > 100 µM | TGI (NCI-H23 lung): 26.2 µM | TGI (MDA-MB-231 breast): 32.3 µM | TGI (HT29 colon): 15.9 µM | TGI (NCI-H522 lung): 25.9 µM | TGI (SK-MEL-2 melanoma): 28.1 µM | TGI (SF-539 CNS): > 100 µM | TGI (HCC-2998 colon): > 100 µM | TGI (COLO 205 colon): 26.1 µM | TGI (HOP-92 NSCLC): 53.2 µM | TGI (A549 NSCLC): > 100 µM | TGI (SK-OV-3 ovarian): 95.4 µM | TGI (DU-145 prostate): > 100 µM | TGI (TK-10 renal): > 100 µM | TGI (UACC-62 melanoma): 76.7 µM | TGI (OVCAR-4 ovarian): 38.9 µM | TGI (SK-MEL-5 melanoma): 20.8 µM | TGI (NCI-H460 lung): > 100 µM | TGI (A498 renal): 80.6 µM | TGI (SN12C renal): > 100 µM | TGI (HS 578T breast): > 100 µM | TGI (SNB-75 CNS): > 100 µM | TGI (M14 melanoma): 15.6 µM | TGI (HOP-62 NSCLC): > 100 µM | TGI (SR leukemia): > 100 µM | TGI (OVCAR-3 ovarian): 90.4 µM | TGI (BT-549 breast): > 100 µM | TGI (UACC-257 melanoma): 38.1 µM | TGI (SF-295 CNS): > 100 µM | TGI (LOX IMVI melanoma): > 100 µM | TGI (RPMI-8226 leukemia): > 100 µM | TGI (IGROV1 ovarian): > 100 µM | TGI (HCT-116 colon): 15.8 µM | TGI (MALME-3M melanoma): > 100 µM | TGI (RXF 393 renal): 70.5 µM | TGI (KM12 colon): 36.2 µM | TGI (U251 CNS): 29.4 µM | TGI (K-562 leukemia): > 100 µM | TGI (SNB-19 CNS): > 100 µM | TGI (OVCAR-5 ovarian): 23.9 µM | TGI (SF-268 CNS): > 100 µM | TGI (SK-MEL-28 melanoma): > 100 µM | TGI (NCI-H226 lung): > 100 µM | TGI (MOLT-4 leukemia): > 100 µM | TGI (HCT-15 colon): > 100 µM | TGI (T-47D breast): 76.7 µM | TGI (SW-620 colon): > 100 µM | TGI (UO-31 renal): 38.4 µM | TGI (ACHN renal): > 100 µM | TGI (PC-3 prostate): 69.1 µM | TGI (786-0 renal): 4.39 µM | TGI (MDA-N): 16 µM | TGI (NCI/ADR-RES ovarian): 86.7 µM

O=C1OC(c2ccccc2)=N/C1=C\c1ccc(Br)cc1
TGI (MCF7 breast): > 100 µM | TGI (HL-60(TB) leukemia): > 100 µM | TGI (NCI-H23 lung): > 100 µM | TGI (MDA-MB-231 breast): > 100 µM | TGI (HT29 colon): > 100 µM | TGI (MDA-MB-435): > 100 µM | TGI (NCI-H522 lung): > 100 µM | TGI (SK-MEL-2 melanoma): > 100 µM | TGI (SF-539 CNS): > 100 µM | TGI (HCC-2998 colon): > 100 µM | TGI (OVCAR-8 ovarian): > 100 µM | TGI (COLO 205 colon): > 100 µM | TGI (HOP-92 NSCLC): > 100 µM | TGI (A549 NSCLC): > 100 µM | TGI (SK-OV-3 ovarian): > 100 µM | TGI (DU-145 prostate): > 100 µM | TGI (TK-10 renal): > 100 µM | TGI (UACC-62 melanoma): > 100 µM | TGI (OVCAR-4 ovarian): > 100 µM | TGI (CAKI-1 renal): > 100 µM | TGI (SK-MEL-5 melanoma): > 100 µM | TGI (NCI-H460 lung): > 100 µM | TGI (CCRF-CEM leukemia): > 100 µM | TGI (A498 renal): > 100 µM | TGI (SN12C renal): > 100 µM | TGI (HS 578T breast): > 100 µM | TGI (SNB-75 CNS): > 100 µM | TGI (M14 melanoma): > 100 µM | TGI (HOP-62 NSCLC): > 100 µM | TGI (SR leukemia): > 100 µM | TGI (OVCAR-3 ovarian): > 100 µM | TGI (BT-549 breast): > 100 µM | TGI (UACC-257 melanoma): > 100 µM | TGI (SF-295 CNS): > 100 µM | TGI (LOX IMVI melanoma): > 100 µM | TGI (EKVX NSCLC): > 100 µM | TGI (RPMI-8226 leukemia): > 100 µM | TGI (IGROV1 ovarian): > 100 µM | TGI (HCT-116 colon): > 100 µM | TGI (MALME-3M melanoma): > 100 µM | TGI (RXF 393 renal): > 100 µM | TGI (KM12 colon): > 100 µM | TGI (U251 CNS): > 100 µM | TGI (K-562 leukemia): > 100 µM | TGI (SNB-19 CNS): > 100 µM | TGI (OVCAR-5 ovarian): > 100 µM | TGI (SF-268 CNS): > 100 µM | TGI (SK-MEL-28 melanoma): > 100 µM | TGI (NCI-H226 lung): > 100 µM | TGI (MOLT-4 leukemia): > 100 µM | TGI (HCT-15 colon): > 100 µM | TGI (T-47D breast): > 100 µM | TGI (SW-620 colon): > 100 µM | TGI (ACHN renal): > 100 µM | TGI (PC-3 prostate): > 100 µM | TGI (786-0 renal): > 100 µM | TGI (MDA-N): > 100 µM
